Read-outs that look alike come from different tables or passages of the source.
Tests used:
Assay type in all cases: cell-based
[1] = test system: lung cancer cells H3122; test: Growth inhibition of tumor cells H3122; conditions: Homo sapiens, NCI-H3122
[2] = test system: wild type BaF3; test: Growth inhibition of wild type BaF3 cells (broad-spectrum toxicity); conditions: Mus musculus, BaF3, 48 h, MTS
In short: (§1)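 MTS absorbance at 490 nm, measured 1–4 h after reagent addition, reports growth after 48 h compound exposure (37 °C, 5% CO2) of 2×10^4 cells/well. Eight 1/3-step concentrations from a 10 μM top, 0.1% DMSO; triplicate inhibition relative to vehicle and blank gives IC50.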

[3] = test system: lung cancer cells A549; test: Growth inhibition of tumor cells A549; conditions: Homo sapiens
[4] = test system: liver cancer HepG2; test: Growth inhibition of tumor cells HepG2; conditions: Homo sapiens
[5] = test system: melanoma A375; test: Growth inhibition of tumor cells A375; conditions: Homo sapiens, A-375
[6] = test system: DFC1076 (crizotinib resistant tumor cell lines); test: Growth inhibition of tumor cells DFC1076; conditions: ALK kinase-positive lung cancer cell line
[7] = molecular target: T1, NPM-ALK-BaF3 (Homo sapiens, UniProt Q9UM73); test: Growth inhibition of NPM-ALK transformed BaF3 cells (MTS); conditions: 48 hours
T1 construct: expressed in transfected cells; host or cells: Ba/F3 cells; the other entry of the earlier key: NPM1 (P06748, Nucleophosmin)
In short: as §1

[8] = test system: breast cancer MCF7; test: Growth inhibition of tumor cells MCF7; conditions: Homo sapiens
[9] = molecular target: T2, EML4-ALK (L1196M)-BaF3 (Homo sapiens, UniProt Q9UM73, L1196M); test: Growth inhibition of EML4-ALK (L1196M) transformed BaF3 cells (MTS); conditions: 48 hours
T2 construct: expressed in transfected cells; host or cells: Ba/F3 cells; the other entry of the earlier key: EML4 (Q9HC35, Echinoderm microtubule-associated protein-like 4)
In short: (§2)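 Ba/F3 cells (2×10^4/well) in DMEM or RPMI1640 with 10% FBS exposed to 8 compound concentrations (top 10 μM, 1/3 serial dilution, 0.1% DMSO) for 48 h at 37 °C, 5% CO2. Viability by MTS/PES, 1-4 h, OD 490 nm; triplicates. IC50 fitted from inhibition rate.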

[10] = molecular target: T3, EML4-ALK-BaF3 (Homo sapiens, UniProt Q9UM73); test: Growth inhibition of EML4-ALK transformed BaF3 cells (MTS); conditions: for IC50: EML4-ALK-BaF3 cells, 48 hours, MTS; for targeting selectivity: ratio of IC50 between wild-type BaF3 and ALK transformed BaF3 cells
T3 construct: expressed in transfected cells; host or cells: Ba/F3 cells; the other entry of the earlier key: EML4 (Q9HC35, Echinoderm microtubule-associated protein-like 4)
In short: as §2

[11] = Table 11, read-out: EML4-ALK (L1196M) (IC50 nM)
[12] = Table 12, read-out: L1196M (IC50 nM)

Row | SMILES | IC50 ([2]; Table 11) [nM] | IC50 ([2]; Table 12) [nM] | IC50 ([7]; Table 11) [nM] | IC50 [9, 11] [nM] | IC50 ([10]; Table 11) [nM] | IC50 ([7]; Table 12) [nM] | IC50 [9, 12] [nM] | IC50 ([10]; Table 12) [nM] | also measured
1 | C[C@@H](Oc1cc(-c2cnn(C3CCNCC3)c2)cnc1N)c1c(Cl)ccc(F)c1Cl [Crizotinib, crizotinib, reference compound] | 1080 | 1080 |  |  |  |  |  |  | IC50 [1]: 185 nM; IC50 [3]: 2400 nM
2 | COc1cc(N2CCC(N3CCN(C)CC3)CC2)ccc1Nc1nc(Nc2ccccc2S(=O)(=O)C(C)C)c2[nH]ccc2n1 [ID-3] | 1010 |  | 303 | 168 | 14.9 |  |  |  | IC50 [1]: 61.1 nM; IC50 [4]: 3440 nM; IC50 [5]: 3760 nM; IC50 [3]: 2720 nM; growth inhibition [6]: good growth inhibition; IC50 [8]: 2840 nM; targeting selectivity [10]: good targeting selectivity
3 | COC(=O)c1cccc(Nc2nc(Nc3ccc(N4CCN(C)CC4)cc3OC)nc3ccn(C)c23)c1 [IIH-1] |  | 4940 |  |  |  | 1750 | 1840 | 1620 | 
4 | COC(=O)c1ccccc1Oc1nc(Nc2ccc(N3CCC(O)CC3)cc2)nc2cc[nH]c12 [IV-3] | 8920 |  | 8150 | 4340 | 4550 |  |  |  | 
5 | CC(C)S(=O)(=O)c1ccccc1CNc1nc(Nc2ccc(N3CCN(C)CC3)cc2)nc2cc[nH]c12 [IO-5] | 1910 |  | 5030 | 5200 | 4870 |  |  |  | 
6 | OC1CCN(c2ccc(Nc3nc(NC4CC4)c4[nH]ccc4n3)cc2)CC1 [IS-3] | 11800 |  | > 10000 | 9710 | 4480 |  |  |  | 
7 | CC(C)Sc1ccccc1Nc1nc(Nc2ccc(N3CCC(O)CC3)cc2)nc2ccn(C)c12 [IIB-3] |  | 1040 |  |  |  | 653 | 917 | 489 | 
8 | COc1cc(N2CCC(N3CCN(C)CC3)CC2)ccc1Nc1nc(Nc2ccccc2S(C)(=O)=O)c2c(ccn2C)n1 [IIC-2] |  | 5050 |  |  |  | ~3460 | ~3510 | 1510 | 
9 | CCOc1cc(C(=O)N2CCC(N3CCN(C)CC3)CC2)ccc1Nc1nc(Nc2ccccc2S(=O)(=O)C(C)C)c2c(ccn2C)n1 [IID-7] |  | ~2580 |  |  |  | ~982 | ~2780 | 783 | 
10 | COC(=O)c1ccccc1Nc1nc(Nc2ccc(N3CCC(N4CCN(C)CC4)CC3)cc2OC)nc2ccn(C)c12 [IIG-2] |  | ~7940 |  |  |  | 4890 | 3730 | ~3880 | 
11 | CC(C)Sc1ccccc1CNc1nc(Nc2ccc(S(N)(=O)=O)cc2)nc2cc[nH]c12 [IM-3] | > 10000 |  | > 10000 | > 10000 | 7530 |  |  |  | 
12 | CCC(C)OC(=O)c1ccccc1Nc1nc(Nc2ccc(N3CCC(O)CC3)cc2)nc2cc[nH]c12 (centres unmarked) [IH-2] | > 10000 |  | > 10000 | 40400 | > 10000 |  |  |  | 
13 | COC(=O)c1ccccc1Nc1nc(Nc2ccc(N3CCC(O)CC3)cc2)nc2cc[nH]c12 [IG-3] | 6870 |  | 6930 | 5040 | 2720 |  |  |  | 
14 | COC(=O)c1ccccc1Nc1nc(Nc2ccc(C(=O)N3CCOCC3)cc2OC)nc2cc[nH]c12 [IG-17] | 9390 |  | 7670 | ~9460 | 7610 |  |  |  | 
15 | CNc1nc(Nc2ccc(N3CCC(O)CC3)cc2)nc2cc[nH]c12 [IQ-3] | > 10000 |  | > 10000 | > 10000 | > 10000 |  |  |  | 
16 | CSc1ccccc1Nc1nc(Nc2ccc(N3CCC(O)CC3)cc2)nc2cc[nH]c12 [IA-2] | 1520 |  | 1030 | 761 | 649 |  |  |  | 
17 | Cc1cc(Nc2nc(Nc3ccccc3S(=O)(=O)C(C)C)c3c(ccn3C)n2)c(OC(C)C)cc1C1CCN(C)CC1 [IID-8] |  | ~8380 |  |  |  | ~3460 | 4770 | 1760 | 
18 | COC(=O)c1cccc(Nc2nc(Nc3ccc(N4CCC(O)CC4)cc3)nc3cc[nH]c23)c1 [II-3] | 9610 |  | 4910 | 6160 | 7470 |  |  |  | 

Row | SMILES | IC50 ([2]; Table 11) [nM] | IC50 ([2]; Table 12) [nM] | IC50 ([7]; Table 11) [nM] | IC50 [9, 11] [nM] | IC50 ([10]; Table 11) [nM] | IC50 ([7]; Table 12) [nM] | IC50 [9, 12] [nM] | IC50 ([10]; Table 12) [nM] | also measured
19 | Cc1cc(Nc2nc(Nc3ccccc3S(=O)(=O)C(C)C)c3[nH]ccc3n2)c(OC(C)C)cc1C1CCN(C)CC1 [ID-6] | ~2840 |  | 1020 | ~2650 | 1510 |  |  |  | 
20 | Cn1ccc2nc(Nc3ccc(N4CCC(O)CC4)cc3)nc(NCc3ccccc3S(C)(=O)=O)c21 [IIK-3] |  | > 10000 |  |  |  | > 10000 | > 10000 | > 10000 | 
21 | CCC(C)OC(=O)c1ccccc1Nc1nc(Nc2ccc(N3CCC(N4CCN(C)CC4)CC3)cc2OC)nc2cc[nH]c12 (centres unmarked) [IH-3] | ~949 |  | ~859 | 502 | ~446 |  |  |  | 
22 | COc1cc(N2CCN(C)CC2)ccc1Nc1nc(NCc2ccccc2SC)c2c(ccn2C)n1 [III-1] |  | ~2780 |  |  |  | ~2740 | 1690 | ~1360 | 
23 | CNc1nc(Nc2ccc(S(N)(=O)=O)cc2)nc2cc[nH]c12 [IQ-4] | > 10000 |  | > 10000 | > 10000 | > 10000 |  |  |  | 
24 | CSc1ccccc1Nc1nc(Nc2ccc(S(N)(=O)=O)cc2)nc2ccn(C)c12 [IIA-4] |  | 2570 |  |  |  | 2700 | 1320 | 1300 | 
25 | COC(=O)c1ccccc1Nc1nc(Nc2ccc(N3CCN(C)CC3)cc2OC)nc2ccn(C)c12 [IIG-1] |  | 5170 |  |  |  | 4870 | 3440 | 2370 | 
26 | COc1cc(N2CCN(C)CC2)ccc1Nc1nc(NCc2ccccc2S(=O)(=O)C(C)C)c2c(ccn2C)n1 [IIL-1] |  | ~2610 |  |  |  | 1350 | 1590 | 1300 | 
27 | CCOc1cc(N2CCC(O)CC2)ccc1Nc1nc(Nc2ccccc2S(C)(=O)=O)c2c(ccn2C)n1 [IIC-6] |  | > 10000 |  |  |  | > 10000 | > 10000 | > 10000 | 
28 | COc1cc(N2CCC(N3CCN(C)CC3)CC2)ccc1Nc1nc(NCc2ccccc2S(C)(=O)=O)c2c(ccn2C)n1 [IIK-2] |  | ~2950 |  |  |  | ~3420 | ~2950 | ~3150 | 
29 | COc1cc(N2CCN(C)CC2)ccc1Nc1nc(Nc2ccccc2SC(C)C)c2c(ccn2C)n1 [IIB-1] |  | 1930 |  |  |  | ~2510 | ~2800 | 1720 | 
30 | CSc1ccccc1CNc1nc(Nc2ccc(S(N)(=O)=O)cc2)nc2cc[nH]c12 [IL-4] | > 10000 |  | > 10000 | > 10000 | 9510 |  |  |  | 
31 | COc1cc(N2CCN(C)CC2)ccc1Nc1nc(Nc2ccccc2S(C)(=O)=O)c2[nH]ccc2n1 [IC-1] | > 10000 |  | ~4560 | ~7250 | 3930 |  |  |  | 
32 | CC(C)S(=O)(=O)c1ccccc1Nc1nc(Nc2ccc(N3CCN(C)CC3)cc2)nc2cc[nH]c12 [ID-2] | ~8310 |  | ~2850 | 2030 | 1170 |  |  |  | 
33 | COc1cc(N2CCC(N3CCN(C)CC3)CC2)ccc1Nc1nc(NCc2ccccc2S(=O)(=O)C(C)C)c2c(ccn2C)n1 [IIL-2] |  | 2620 |  |  |  | 1820 | 1420 | 627 | targeting selectivity [10]: good targeting selectivity
34 | COc1cc(N2CCN(C)CC2)ccc1Nc1nc(Nc2ccccc2SC)c2[nH]ccc2n1 [IA-1] | ~2790 |  | 703 | 1800 | 1370 |  |  |  | 
35 | COC(=O)c1ccccc1Nc1nc(Nc2ccc(S(N)(=O)=O)cc2)nc2cc[nH]c12 [IG-4] | 8510 |  | 6100 | 4940 | 5110 |  |  |  | 
36 | COC(=O)c1ccccc1Oc1nc(Nc2ccc(S(N)(=O)=O)cc2)nc2ccn(C)c12 [IIN-4] |  | > 10000 |  |  |  | > 10000 | > 10000 | > 10000 | 
